Experimental data: EPA's ToxValDB 9.5 (doi:10.2903/j.efsa.2011.1962)

Assays:
[1] = test system: Canidae; settings: subchronic; duration: 90 days; oral; Dog Other; histopathology: nonneoplastic
[2] = test system: Daphnia magna; settings: chronic/long-term; duration: 21 days; reproduction
[3] = test system: Lepomis macrochirus; settings: chronic/long-term; duration: 28 days; body weight
[4] = test system: Oryctolagus sp.; settings: developmental; development
[5] = test system: Rattus norvegicus
[6] = test system: Tagia sp.; settings: acute; duration: 14 days; mortality
[7] = test system: Typhlodromus pyri; test: LR50; higher = less toxic; settings: not reported; mortality

SMILES: CC(C)C(O)(c1ccc(OC(F)(F)F)cc1)c1cncnc1 (stereo unspecified) [Flurprimidol]
- NOAEL [1]: 1.5 mg/kg-day
- NOEC [2]: 1.7 mg/L
- NOEC [3]: 0.42 mg/L
- NOAEL [4]: 9 mg/kg-day
- LOAEL ([5]; chronic, duration: 2 years, organ weight): 1 mg/kg-day
- NOAEL ([5]; developmental, development): 10 mg/kg-day
- NOAEL ([5]; reproduction developmental, reproduction): 1.8 mg/kg-day
- NOEL ([5]; short-term, oral, diet, body weight): 1.62 mg/kg-day
- NOAEL ([5]; subchronic, duration: 90 days, oral, organ weight): 1.96 mg/kg-day
- NOEC [6]: 62.6 mg/kg
- LR50 [7]: > 29.6 g/ha
